{"source": "patent US10206394B2", "about": "“Herbicidal compounds” (Syngenta Participations AG, priority 2014, dated 2019)", "assay_in_all_cases": "Glasshouse assay for herbicidal activity (pre- and post-emergence), percentage phytotoxicity", "assay_type_in_all_cases": "in vivo", "key": {"[1]": {"test_system": "Alopecurus myosuroides (ALOMY)", "conditions": "Alopecurus myosuroides", "method": "(§1) Test—Glasshouse Assay for Herbicidal Activity\n(§2) Seeds of a variety of monocotyledonous and dicotyledonous test plants are sown in standard soil in pots. The plants are cultivated for one day (for pre-emergence (PRE)) or for about 12 days (for post-emergence (POST)) under controlled conditions in a glasshouse (warm climate species at 24/18° C., cool climate species at 20/16° C., both at day/night; 16 hours light; 65% humidity).\n(§3) The test plants are then grown on, in a glasshouse (greenhouse) under controlled conditions (warm climate species at 24/18° C., cool climate species at 20/16° C., both at day/night; 16 hours light; 65% humidity) and are watered twice daily. 15 days after application of the test herbicide (15 DAA) (for post-emergence), and 20 days after application of the test herbicide (20 DAA) (for pre-emergence), the test plants are evaluated visually, and an assessed percentage phytotoxicity score is given for each herbicidal application on each plant species (with 100%=total damage to plant; 0%=no damage to plant).\n(§4) The plant species tested are as follows: Alopecurus myosuroides (ALOMY), Avena fatua (AVEFA), Lolium perenne (LOLPE), Echinochloa crus-galli (ECHCG)."}, "Avena fatua (AVEFA)": {"test_system": "Avena fatua (AVEFA)", "conditions": "Avena fatua", "method": "as §1, §2, §3, §4"}, "[2]": {"test_system": "Echinochloa crus-galli (ECHCG)", "conditions": "Echinochloa crus-galli", "method": "as §1, §2, §3, §4"}, "Lolium perenne (LOLPE)": {"test_system": "Lolium perenne (LOLPE)", "conditions": "Lolium perenne", "method": "as §1, §2, §3, §4"}, "[3]": {"conditions": "post-emergence, 360 h, POST-emergence, rate 250 g/ha, visual score 15 DAA (100%=total damage, 0%=no damage), read-out: Post-emergence herbicidal activity (percentage phytotoxicity) ALOMY POST"}, "[4]": {"conditions": "pre-emergence, 480 h, PRE-emergence, rate 250 g/ha, visual score 20 DAA (100%=total damage, 0%=no damage), read-out: Pre-emergence herbicidal activity (percentage phytotoxicity) ALOMY PRE"}, "[5]": {"conditions": "post-emergence, 360 h, POST-emergence, rate 250 g/ha, visual score 15 DAA (100%=total damage, 0%=no damage), read-out: Post-emergence herbicidal activity (percentage phytotoxicity) AVEFA POST"}, "[6]": {"conditions": "pre-emergence, 480 h, PRE-emergence, rate 250 g/ha, visual score 20 DAA (100%=total damage, 0%=no damage), read-out: Pre-emergence herbicidal activity (percentage phytotoxicity) AVEFA PRE"}, "[7]": {"conditions": "post-emergence, 360 h, POST-emergence, rate 250 g/ha, visual score 15 DAA (100%=total damage, 0%=no damage), read-out: Post-emergence herbicidal activity (percentage phytotoxicity) ECHCG POST"}, "[8]": {"conditions": "pre-emergence, 480 h, PRE-emergence, rate 250 g/ha, visual score 20 DAA (100%=total damage, 0%=no damage), read-out: Pre-emergence herbicidal activity (percentage phytotoxicity) ECHCG PRE"}, "[9]": {"conditions": "post-emergence, 360 h, POST-emergence, rate 250 g/ha, visual score 15 DAA (100%=total damage, 0%=no damage), read-out: Post-emergence herbicidal activity (percentage phytotoxicity) LOLPE POST"}, "[10]": {"conditions": "pre-emergence, 480 h, PRE-emergence, rate 250 g/ha, visual score 20 DAA (100%=total damage, 0%=no damage), read-out: Pre-emergence herbicidal activity (percentage phytotoxicity) LOLPE PRE"}}, "note": "Where two headings read alike, the source gives them in different places.", "data": [{"molecule": "CCc1cc(C)cc(C)c1C1C(=O)CC(CC(=O)NCc2cccc(Cl)c2)C1=O", "note": "(stereo not shown) [Compound B251]", "values": [{"measurement": "pest or weed control at 250 g/ha", "setting": "[1]; [3]", "value": 100, "unit": "%"}, {"measurement": "pest or weed control at 250 g/ha", "setting": "[1]; [4]", "value": 90, "unit": "%"}, {"measurement": "pest or weed control at 250 g/ha", "setting": "Avena fatua (AVEFA); [5]", "value": 90, "unit": "%"}, {"measurement": "pest or weed control at 250 g/ha", "setting": "Avena fatua (AVEFA); [6]", "value": 60, "unit": "%"}, {"measurement": "pest or weed control at 250 g/ha", "setting": "[2]; [7]", "value": 100, "unit": "%"}, {"measurement": "pest or weed control at 250 g/ha", "setting": "[2]; [8]", "value": 90, "unit": "%"}, {"measurement": "pest or weed control at 250 g/ha", "setting": "Lolium perenne (LOLPE); [9]", "value": 100, "unit": "%"}, {"measurement": "pest or weed control at 250 g/ha", "setting": "Lolium perenne (LOLPE); [10]", "value": 90, "unit": "%"}]}, {"molecule": "Cc1cc(-c2ncc(F)cc2F)cc(C)c1C1C(=O)CC(CC(=O)NCC2CC2(Cl)Cl)C1=O", "note": "(stereo not shown) [Compound B77]", "values": [{"measurement": "pest or weed control at 250 g/ha", "setting": "[1]; post-emergence, 360 h, 250 g/ha, post-emergence, 15 DAA, visual assessment (100%=total damage, 0%=no damage), read-out: Post-emergence herbicidal activity (percentage phytotoxicity) ALOMY POST", "value": 100, "unit": "%"}, {"measurement": "pest or weed control at 250 g/ha", "setting": "[1]; pre-emergence, 480 h, 250 g/ha, pre-emergence, 20 DAA, visual assessment (100%=total damage, 0%=no damage), read-out: Pre-emergence herbicidal activity (percentage phytotoxicity) ALOMY PRE", "value": 90, "unit": "%"}, {"measurement": "pest or weed control at 250 g/ha", "setting": "Avena fatua (AVEFA); post-emergence, 360 h, 250 g/ha, post-emergence, 15 DAA, visual assessment (100%=total damage, 0%=no damage), read-out: Post-emergence herbicidal activity (percentage phytotoxicity) AVEFA POST", "value": 100, "unit": "%"}, {"measurement": "pest or weed control at 250 g/ha", "setting": "Avena fatua (AVEFA); pre-emergence, 480 h, 250 g/ha, pre-emergence, 20 DAA, visual assessment (100%=total damage, 0%=no damage), read-out: Pre-emergence herbicidal activity (percentage phytotoxicity) AVEFA PRE", "value": 90, "unit": "%"}, {"measurement": "pest or weed control at 250 g/ha", "setting": "[2]; post-emergence, 360 h, 250 g/ha, post-emergence, 15 DAA, visual assessment (100%=total damage, 0%=no damage), read-out: Post-emergence herbicidal activity (percentage phytotoxicity) ECHCG POST", "value": 100, "unit": "%"}, {"measurement": "pest or weed control at 250 g/ha", "setting": "[2]; pre-emergence, 480 h, 250 g/ha, pre-emergence, 20 DAA, visual assessment (100%=total damage, 0%=no damage), read-out: Pre-emergence herbicidal activity (percentage phytotoxicity) ECHCG PRE", "value": 100, "unit": "%"}, {"measurement": "pest or weed control at 250 g/ha", "setting": "Lolium perenne (LOLPE); post-emergence, 360 h, 250 g/ha, post-emergence, 15 DAA, visual assessment (100%=total damage, 0%=no damage), read-out: Post-emergence herbicidal activity (percentage phytotoxicity) LOLPE POST", "value": 100, "unit": "%"}, {"measurement": "pest or weed control at 250 g/ha", "setting": "Lolium perenne (LOLPE); pre-emergence, 480 h, 250 g/ha, pre-emergence, 20 DAA, visual assessment (100%=total damage, 0%=no damage), read-out: Pre-emergence herbicidal activity (percentage phytotoxicity) LOLPE PRE", "value": 100, "unit": "%"}]}, {"molecule": "Cc1cc(-c2ccc(F)cn2)cc(C)c1C1C(=O)CC(CC(=O)NCc2cccc(Br)c2)C1=O", "note": "(stereo not shown) [Compound B384]", "values": [{"measurement": "pest or weed control at 250 g/ha", "setting": "[1]; post-emergence, 360 h, Rate 250 g/ha, post-emergence, visual assessment 15 DAA, 100%=total damage, 0%=no damage, read-out: Post-emergence herbicidal activity (percentage phytotoxicity) ALOMY POST", "value": 90, "unit": "%"}, {"measurement": "pest or weed control at 250 g/ha", "setting": "[1]; pre-emergence, 480 h, Rate 250 g/ha, pre-emergence, visual assessment 20 DAA, 100%=total damage, 0%=no damage, read-out: Pre-emergence herbicidal activity (percentage phytotoxicity) ALOMY PRE", "value": 80, "unit": "%"}, {"measurement": "pest or weed control at 250 g/ha", "setting": "Avena fatua (AVEFA); post-emergence, 360 h, Rate 250 g/ha, post-emergence, visual assessment 15 DAA, 100%=total damage, 0%=no damage, read-out: Post-emergence herbicidal activity (percentage phytotoxicity) AVEFA POST", "value": 100, "unit": "%"}, {"measurement": "pest or weed control at 250 g/ha", "setting": "Avena fatua (AVEFA); pre-emergence, 480 h, Rate 250 g/ha, pre-emergence, visual assessment 20 DAA, 100%=total damage, 0%=no damage, read-out: Pre-emergence herbicidal activity (percentage phytotoxicity) AVEFA PRE", "value": 80, "unit": "%"}, {"measurement": "pest or weed control at 250 g/ha", "setting": "[2]; post-emergence, 360 h, Rate 250 g/ha, post-emergence, visual assessment 15 DAA, 100%=total damage, 0%=no damage, read-out: Post-emergence herbicidal activity (percentage phytotoxicity) ECHCG POST", "value": 40, "unit": "%"}, {"measurement": "pest or weed control at 250 g/ha", "setting": "[2]; pre-emergence, 480 h, Rate 250 g/ha, pre-emergence, visual assessment 20 DAA, 100%=total damage, 0%=no damage, read-out: Pre-emergence herbicidal activity (percentage phytotoxicity) ECHCG PRE", "value": 90, "unit": "%"}, {"measurement": "pest or weed control at 250 g/ha", "setting": "Lolium perenne (LOLPE); post-emergence, 360 h, Rate 250 g/ha, post-emergence, visual assessment 15 DAA, 100%=total damage, 0%=no damage, read-out: Post-emergence herbicidal activity (percentage phytotoxicity) LOLPE POST", "value": 90, "unit": "%"}, {"measurement": "pest or weed control at 250 g/ha", "setting": "Lolium perenne (LOLPE); pre-emergence, 480 h, Rate 250 g/ha, pre-emergence, visual assessment 20 DAA, 100%=total damage, 0%=no damage, read-out: Pre-emergence herbicidal activity (percentage phytotoxicity) LOLPE PRE", "value": 80, "unit": "%"}]}, {"molecule": "COc1ccc(CNC(=O)CC2CC(=O)C(c3c(C)cc(-c4ncc(F)cn4)cc3C)C2=O)cc1", "note": "(stereo not shown) [Compound B271]", "values": [{"measurement": "pest or weed control at 250 g/ha", "setting": "[1]; [3]", "value": 100, "unit": "%"}, {"measurement": "pest or weed control at 250 g/ha", "setting": "[1]; [4]", "value": 80, "unit": "%"}, {"measurement": "pest or weed control at 250 g/ha", "setting": "Avena fatua (AVEFA); [5]", "value": 100, "unit": "%"}, {"measurement": "pest or weed control at 250 g/ha", "setting": "Avena fatua (AVEFA); [6]", "value": 80, "unit": "%"}, {"measurement": "pest or weed control at 250 g/ha", "setting": "[2]; [7]", "value": 100, "unit": "%"}, {"measurement": "pest or weed control at 250 g/ha", "setting": "[2]; [8]", "value": 100, "unit": "%"}, {"measurement": "pest or weed control at 250 g/ha", "setting": "Lolium perenne (LOLPE); [9]", "value": 90, "unit": "%"}, {"measurement": "pest or weed control at 250 g/ha", "setting": "Lolium perenne (LOLPE); [10]", "value": 80, "unit": "%"}]}, {"molecule": "Cc1cc(-n2cc(Cl)cn2)cc(C)c1C1C(=O)CC(CC(=O)NC2CC2)C1=O", "note": "(stereo not shown) [Compound A75]", "values": [{"measurement": "pest or weed control at 250 g/ha", "setting": "[1]; post-emergence, 360 h, Rate 250 g/ha, post-emergence, assessed visually 15 DAA, 100%=total damage, 0%=no damage, read-out: Post-emergence herbicidal activity (percentage phytotoxicity) ALOMY POST", "value": 100, "unit": "%"}, {"measurement": "pest or weed control at 250 g/ha", "setting": "[1]; pre-emergence, 480 h, Rate 250 g/ha, pre-emergence, assessed visually 20 DAA, 100%=total damage, 0%=no damage, read-out: Pre-emergence herbicidal activity (percentage phytotoxicity) ALOMY PRE", "value": 100, "unit": "%"}, {"measurement": "pest or weed control at 250 g/ha", "setting": "Avena fatua (AVEFA); post-emergence, 360 h, Rate 250 g/ha, post-emergence, assessed visually 15 DAA, 100%=total damage, 0%=no damage, read-out: Post-emergence herbicidal activity (percentage phytotoxicity) AVEFA POST", "value": 100, "unit": "%"}, {"measurement": "pest or weed control at 250 g/ha", "setting": "Avena fatua (AVEFA); pre-emergence, 480 h, Rate 250 g/ha, pre-emergence, assessed visually 20 DAA, 100%=total damage, 0%=no damage, read-out: Pre-emergence herbicidal activity (percentage phytotoxicity) AVEFA PRE", "value": 90, "unit": "%"}, {"measurement": "pest or weed control at 250 g/ha", "setting": "[2]; post-emergence, 360 h, Rate 250 g/ha, post-emergence, assessed visually 15 DAA, 100%=total damage, 0%=no damage, read-out: Post-emergence herbicidal activity (percentage phytotoxicity) ECHCG POST", "value": 100, "unit": "%"}, {"measurement": "pest or weed control at 250 g/ha", "setting": "[2]; pre-emergence, 480 h, Rate 250 g/ha, pre-emergence, assessed visually 20 DAA, 100%=total damage, 0%=no damage, read-out: Pre-emergence herbicidal activity (percentage phytotoxicity) ECHCG PRE", "value": 100, "unit": "%"}, {"measurement": "pest or weed control at 250 g/ha", "setting": "Lolium perenne (LOLPE); post-emergence, 360 h, Rate 250 g/ha, post-emergence, assessed visually 15 DAA, 100%=total damage, 0%=no damage, read-out: Post-emergence herbicidal activity (percentage phytotoxicity) LOLPE POST", "value": 90, "unit": "%"}, {"measurement": "pest or weed control at 250 g/ha", "setting": "Lolium perenne (LOLPE); pre-emergence, 480 h, Rate 250 g/ha, pre-emergence, assessed visually 20 DAA, 100%=total damage, 0%=no damage, read-out: Pre-emergence herbicidal activity (percentage phytotoxicity) LOLPE PRE", "value": 90, "unit": "%"}]}]}
